According to patent US7498406B2, “Substantially cell membrane impermeable compound and use thereof” (priority 1999, dated 2009):
pIC50: −log10 of the molar value. “Also recorded” adds a separate entry of the source.

What was measured:
BVSM = assay: Viability of cultured cells, 72 hr; format: cell-based, bovine; conditions: 5% BCS, 0 to 1 mM
Experimental: FIG. 19. Effect of GSAO on proliferation of non-endothelial cells. 15,000 BxPC-3 (part A), HT1080 (part B), 3T3 (part C) or BVSM (part D) cells per well were seeded into gelatinised 24-well culture plates and allowed to attach for 24 hr. The media was then replaced with DMEM containing 0 to 1 mM GSAO or GSAA and either 5% BCS (part D) or 5% FCS (parts A, B and C). Cells were cultured for 72 hr and then dispersed and counted. The dotted lines indicate the cell number in control wells containing DMEM and 2% BCS (part D) or 2% FCS (parts A, B and C) which represented no to limited proliferation. The data points and errors represent the mean and range of duplicate wells.
BCE (Folkman et al. 1979), BAE, BxPC-3 (ATCC, Bethesda, Md.), HT1080 (Jiang et al., 1999), 3T3 (ATCC, Bethesda, Md.) and BVSM (Hogg et al., 1997) cells were harvested and cultured as indicated. […] Cells were cultured for 0 to 72 hr in 10% CO2 at 37° C. then dispersed in trypsin/EDTA (GibcoBRL, Granc Island, N.Y.), resuspended in Coulter balanced electrolyte solution and counted with a Z1 Coulter counter (Coulter Corp., Miami, Fla.) in all experiments there were two control wells containing DMEM with 1% GPS and either 5% BCS for BCE cells, 2% BCS for BAE and BVSM cells, or 2% FCS for BxPC-3, HT1080 and 3T3 cells. […]

[1] = test system: primary HIV isolates (HN11, HN68 or HN70); assay: Infection of PBMC's by primary HIV isolates, p24 antigen; format: cell-based; conditions: 10 μM, 7 days
Experimental: PBMC's (1×10^6 per mL) were incubated with GSAA or GSAO (10 μM) for 30 minutes at 37° C. and then with primary HIV isolates (HN11, HN68 or HN70 at 50 TCID50 per 10^6 cells) for 2 hours at 37° C. Cells were washed and incubated in complete medium containing GSAA or GSAO (10 μM) at 5% CO2 and 37° C. for up to 7 days. At the indicated times the conditioned medium was collected and assayed for p24 antigen and cell number and cell viability was determined.
The primary HIV isolates, HN11, HN68 and HN70, were provided by Dr. Hassan Naif, Centre for Virus Research, Westmead Millennium Institute, NSW, Australia. […] The blood was diluted 1:2 with PBS, layered onto Ficoll-Hypaque (35 mL blood onto 15 mL Ficoll-Hypaque) in 50 mL Falcon tubes and centrifuged at 400 g for 20 minutes at 20° C. The PBMC's were collected and pelleted at 1200 rpm for 10 minutes to remove platelets, resuspended at 2×10^6 cells per mL in RPMI containing 20% horse serum (Gibco BRL, Gaithersburg, Md.), 10 μg per mL phytohemagglutinin-M (PHA-M, Boehringer Mannheim Biochemica, Mannheim, Germany) and […] interleukin-2 (Sigma, St. Louis, Mo.) and incubated for 2 days at 5% CO2 and 37° C., PBMC (1×10^6 per mL) were incubated with GSAO or GSAA (10 μM) for 30 minutes at 37° C. in serum-free media. Virus was added at 50 TCID50 per 10^6 cells for 2 hours at 37° C.. […]

HIVIIIB = HIVIIIB entry into / infection of A3.01 cells, p24 antigen; format: cell-based, HIV
Experimental: FIG. 33. […] Cells were washed and incubated in complete medium at 5% CO2 and 37° C. for up to 10 days. […] B Concentration dependence of GSAO. […] Cells were washed, incubated in complete medium at 5% CO2 and 37° C. for 3 days and the conditioned medium collected and assayed for p24 antigen.
FIG. 34. Inhibition of HIVIIIB infection of A3.01 cells by GSAO.
A3.01 human T cells were exposed to GSAO for 30 minutes and then to HTLVIIIB virus for 2 hours after which the cells were washed and then cultured for up to 10 days. HTLVIIIB and A3.01 cells were obtained from the NIH AIDS Research and Reference Reagent Program, Rockville, Mass. Virus stocks were made and infectivity titer determined using A3.01 cells and the p24 antigen assay (Coulter, Miami, Fla.). A3.01 cells were cultured in RPMI medium containing 10% fetal calf serum. […] Cell numbers and cell viability were determined at the times specified by staining cells with trypan blue and counting using a Neubauer haemacytometer. Cell viability was measured as a percentage of live cells to total cells.

Human T cells (A3.01) = assay: Tritiated GSAO in cytosol (membrane permeability); format: in vitro ADME
Experimental: Human T cells (A3.01) or adherent BAE cells were incubated with complete medium containing 50 μM GSAO and ˜100,000 counts per, minute of tritiated GSAO for 1 or 72 hours. Tritiated GSAO was prepared exactly as described for GSAO except that glycine-2-^3H-glutathione (NEN, Boston, Mass.) was used in place of cold glutathione. The cells were washed and lysed by two cycles of freezing and thawing. The cytosolic constituents were collected by differential centrifugation (Ausbel et al., 2000) and the tritiated GSAO was measured. Only 0.5% of the total tritiated GSAO was found in the T cell cytosol and 0.04% in the BAE cytosol after 1 hour. Moreover, only 4.5% of the GSAO penetrated the T cell membrane after 72 hours of culture.

Compound	Viability IC50 (BVSM)	infection of PBMC's by primary HIV isolates [1]	HIVIIIB infection of A3.01 cells (HIVIIIB; 10 μM, also in the culture medium)	inhibition of HIVIIIB entry (HIVIIIB; 100 μM, 30 minutes before virus)	pIC50 (HIVIIIB; Human immunodeficiency virus 1, read-out: half-maximal effect on HIVIIIB entry)	total tritiated GSAO found in the cytosol (Human T cells (A3.01); 50 μM GSAO, 1 hour) [%]	GSAO that penetrated the T cell membrane (Human T cells (A3.01); 50 μM GSAO, 72 hours of culture) [%]	crossing of the plasma membrane (Human T cells (A3.01); A3.01 or BAE cells)
N[C@@H](CCC(=O)N[C@@H](CSCC(=O)Nc1ccc([As](=O)(O)O)cc1)C(=O)NCC(=O)O)C(=O)O [GSAA, 4-(N-(S-glutathionylacetyl)amino)phenylarsonic acid, reference compound]	no significant effect							
NC(CCC(=O)NC(CSCC(=O)Nc1ccc([As]=O)cc1)C(=O)NCC(=O)O)C(=O)O (centres unmarked) [GSAO, 4-(N-(S-glutathionylacetyl)amino)-phenylarsenoxide]		blocked infection	effectively blocked	Inhibition of HIVIIIB entry; also recorded: inhibited entry	~6.00	0.5	4.5	does not cross the plasma membrane to any significant extent
